Results: ChEMBL document CHEMBL5523754, “Discovery of Biphenyl Derivatives to Target Hsp70-Bim Protein-Protein Interaction in Chronic Myeloid Leukemia by Scaffold Hopping Strategy” (J Med Chem, 2024)
≈ marks a conversion by molar mass, not a printed value. Calls of active or inactive are those of the source. The calls are words filed in the database; no cut-off is given here.

What was measured:
[1] = Inhibition of N-terminal 6xHis tagged human Hsp70 expressed in Escherichia coli BL21 (DE3)/FAM-labeled BimBH3 peptide (unknown origin) protein protein interaction incubated for 10 mins by fluorescence polarization assay
Homo sapiens [2] = species: Homo sapiens; assay: Inhibition of BimBH3 peptide stimulated human N-terminal 6xHis tagged Hsp70 ATPase activity expressed in Escherichia coli BL21 (DE3) at 0 to 50 uM preincubated for 30 mins followed by ATP addition and measured after 10 mins by luciferin based luminescence analysis; settings: dose 0-50 µM, time 40.0 min
Homo sapiens [3] = species: Homo sapiens; assay: Effect on human N-terminal 6xHis tagged HSP70 basal ATPase activity expressed in Escherichia coli BL21 (DE3) at 0 to 50 uM preincubated for 30 mins followed by ATP addition and measured after 10 mins by luciferin based luminescence analysis; settings: dose 0-50 µM, time 40.0 min
[4] = Binding affinity to N-terminal 6xHis tagged human HSP70 expressed in Escherichia coli BL21 (DE3) assessed as dissociation constant by ITC analysis
[5] = (§1) Inhibition of BimBH3 peptide stimulated human N-terminal 6xHis tagged Hsp70 ATPase activity expressed in Escherichia coli BL21 (DE3) preincubated for 30 mins followed by ATP addition and measured after 10 mins by luciferin based luminescence analysis
Homo sapiens [6] = species: Homo sapiens; assay: as §1; settings: time 40.0 min
K562 [7] = assay: Induction of apoptosis in human K562 cells incubated for 48 hrs by Annexin V-FITC staining based flow cytometry analysis; type: functional, cell-based; settings: K562, 48 h
K562 [8] = assay: Inhibition of HSP70/Bim protein-protein interaction in human K562 cells assessed as reduction in eIF4E protein expression at 2 uM incubated for 12 hrs by Western blot analysis; type: cell-based
[9] = Aqueous solubility of compound at pH 7 at 10 mg incubated for 24 hrs under shaking condition by HPLC method; type: physicochemical; settings: aqueous medium
K562 [10] = assay: Induction of apoptosis in Bim shRNA-transfected human K562 cells assessed as increase in PARP cleavage at 2 uM incubated for 24 hrs by Western blot analysis; type: functional, cell-based
[11] = Induction of apoptosis in human Imatinib-resistant K562-R3 cells incubated for 48 hrs by Annexin V-FITC staining based flow cytometry analysis; type: functional; settings: Imatinib-resistant K562-R3 cell
K562 [12] = assay: Inhibition of HSP70/Bag3 protein-protein interaction in human K562 cells at 0.5 to 3 uM incubated for 12 hrs by coimmunoprecipitation analysis; type: cell-based; settings: dose 0.5-3 µM
K562 [13] = assay: Inhibition of HSP70/Bim protein-protein interaction in human K562 cells assessed as reduction in Raf-1 protein expression at 2 uM incubated for 12 hrs by Western blot analysis; type: cell-based
K562 [14] = assay: Inhibition of HSP70/Bim protein-protein interaction in human K562 cells incubated for 12 hrs by coimmunoprecipitation analysis; type: cell-based; settings: dose 0.5-3 µM
K562 [15] = assay: Induction of apoptosis in Hsp70 shRNA-transfected human K562 cells assessed as increase in PARP cleavage at 2 uM incubated for 24 hrs by Western blot analysis; type: functional, cell-based
HEK293 = assay: Induction of apoptosis in HEK293 cells assessed as apoptotic rate at 15 uM incubated for 48 hrs by Annexin V-FITC staining based flow cytometry analysis relative to control; type: toxicity, cell-based; settings: human, hek293, 48 h
BV-173 = assay: Induction of apoptosis in human BV-173 cells incubated for 48 hrs by Annexin V-FITC staining based flow cytometry analysis; type: functional, cell-based; settings: BV-173, 48 h
BaF3 = assay: Induction of apoptosis in mouse BaF3 cells assessed as apoptotic rate at 15 uM incubated for 48 hrs by Annexin V-FITC staining based flow cytometry analysis relative to control; type: toxicity, cell-based; settings: baf3, 48 h
K562 [16] = assay: Inhibition of HSP70/Bim protein-protein interaction in human K562 cells assessed as reduction in AKT protein expression at 2 uM incubated for 12 hrs by Western blot analysis; type: cell-based
K562 [17] = assay: Inhibition of HSP70/Bim protein-protein interaction in human K562 cells at 5 uM incubated for 12 hrs by coimmunoprecipitation analysis; type: cell-based
[18] = Induction of apoptosis in HEK293 cells incubated for 48 hrs by Annexin V-FITC staining based flow cytometry analysis; type: toxicity, cell-based; settings: human
Homo sapiens [19] = species: Homo sapiens; assay: Inhibition of human N-terminal 6xHis tagged HSP70 basal ATPase activity expressed in Escherichia coli BL21 (DE3) at 0 to 50 uM preincubated for 30 mins followed by ATP addition and measured after 10 mins by luciferin based luminescence analysis; settings: dose 0-50 µM, time 40.0 min
[20] = Induction of apoptosis in mouse BaF3 cells incubated for 48 hrs by Annexin V-FITC staining based flow cytometry analysis; type: toxicity, cell-based
K562 [21] = assay: Inhibition of HSP70/Bag3 protein-protein interaction in human K562 cells at 5 uM incubated for 12 hrs by coimmunoprecipitation analysis; type: cell-based
K562 [22] = assay: Inhibition of HSP70/Bim protein-protein interaction in human K562 cells assessed as reduction in AKT protein expression incubated for 12 hrs by Western blot analysis; type: cell-based
K562 [23] = assay: Inhibition of HSP70/Bim protein-protein interaction in human K562 cells assessed as reduction in Raf-1 protein expression incubated for 12 hrs by Western blot analysis; type: cell-based
K562 [24] = assay: Inhibition of HSP70/Bag3 protein-protein interaction in human K562 cells at 3 uM incubated for 12 hrs by coimmunoprecipitation analysis; type: cell-based
K562 [25] = assay: Inhibition of HSP70/Bim protein-protein interaction in human K562 cells assessed as reduction in eIF4E protein expression incubated for 12 hrs by Western blot analysis; type: cell-based

SMILES | IC50 [1] | inhibition (Homo sapiens [2]) | Activity (Homo sapiens [3]) | other results
Cc1cc(Oc2ccc(-c3cc(O)c(C#N)c(NCCN(C)C)c3)cc2)cc(C)c1Cl | 0.33 µM | Active | inactive | 
CN(C)CCNc1cc(-c2ccc(OC34CC5CC(CC(C5)C3)C4)cc2)cc(O)c1C#N | 8.8 µM | Active | inactive | 
Cc1cc(Oc2ccc(-c3cc(O)c(C#N)c(NCCN4CCCC4)c3)cc2)cc(C)c1Cl | 0.09 µM | Active | inactive | 
N#Cc1ccc(COC[C@H]2O[C@@H](n3c(NCc4ccc(Cl)c(Cl)c4)nc4c(N)ncnc43)[C@H](O)[C@@H]2O)cc1 |  | Active |  | inhibition (K562 [17]): inactive; EC50 (K562 [7]): 7.05 µM; EC50 at 48 h [18]: 6.46 µM; inhibition (Homo sapiens [19]): Active; EC50 [11]: 8.68 µM; EC50 at 48 h [20]: 7.73 µM; EC50 (BV-173): 5.64 µM; inhibition (K562 [21]): inactive
CCN(CC)CCNc1cc(-c2ccc(Oc3cc(C)c(Cl)c(C)c3)cc2)cc(O)c1C#N | 0.28 µM | Active | inactive | 
CN(C)CCn1c(=O)oc2ccc(NC(=O)NC3CCCCC3)cc21 | > 10 µM | Active | inactive | 
CN(C)CCn1cnc2ccc(NC(=O)C3CCCCC3)cc21 | > 10 µM | Active | inactive | 
Cc1cc(Oc2ccc(-c3cc(O)c(C#N)c(NCCN(C)C)c3)cc2)cc(C)c1N | 0.41 µM | Active | inactive | 
O=C(Nc1ccc2ncn(CCN3CCOCC3)c2c1)NC1CCCCC1 | > 10 µM | Active | inactive | 
Cc1cc(C)cc(Oc2ccc(-c3cc(O)c(C#N)c(NCCN(C)C)c3)cc2)c1 | 0.62 µM | Active | inactive | 

Now from value to molecule, other results behind:

IC50 [1] | inhibition (Homo sapiens [2]) | Activity (Homo sapiens [3]) | SMILES | other results
8.2 µM | Active | inactive | CN(C)CCNc1cc(-c2ccc(OC3CCCCC3)cc2)cc(F)c1C#N | 
> 10 µM | Active | inactive | O=C(Nc1ccc2ccn(CCN3CCOCC3)c2c1)NC1CCCCC1 | 
0.07 µM |  | inactive | Cc1cc(Oc2ccc(-c3cc(O)c(C#N)c(NCCN4CCCCC4)c3)cc2)cc(C)c1Cl | Kd [4]: 0.123 µM; IC50 [5]: 4.89 µM; inhibition (Homo sapiens [6]): Dose-Dependent Effect; EC50 (K562 [7]): 0.88 µM; inhibition (K562 [8]): Active; solubility thermodynamic at 24 h [9]: 29.4 µg/mL (≈ 61.8 µM); Activity (K562 [10]): inactive; EC50 [11]: 0.19 µM; inhibition (K562 [12]): inactive; inhibition (K562 [13]): Active; inhibition (K562 [14]): Dose-Dependent Effect; Activity (K562 [15]): inactive; Activity (HEK293): < 10%; EC50 (BV-173): 0.43 µM; Activity (BaF3): < 10%; inhibition (K562 [16]): Active
> 10 µM | Active | inactive | CCN(CC)CCn1cnc2ccc(NC(=O)NC3CCCCC3)cc21 | 
> 10 µM | Active | inactive | Cc1cc(-c2ccc(OC3CCCCC3)cc2)cc(NCCN(C)C)c1C#N | 
3.6 µM | Active | inactive | CN(C)CCNc1cc(-c2ccc(OC3CCCCC3)cc2)cc(CC(=O)O)c1C#N | 
> 10 µM | Active | inactive | CN(C)CCn1ccc2ccc(NC(=O)NC3CCCCC3)cc21 | 
0.82 µM | Active | inactive | Cc1cccc(Oc2ccc(-c3cc(O)c(C#N)c(NCCN(C)C)c3)cc2)c1 | 
> 10 µM | Active | inactive | O=C(Nc1ccc2ccn(CCN3CCOCC3)c2c1)C1CCCCC1 | 
0.93 µM | Active | inactive | CN(C)CCNc1cc(-c2ccc(OC3CCCCC3)cc2)cc(O)c1C#N | 
0.88 µM | Active | inactive | CN(C)CCNc1cc(-c2ccc(Oc3cc(C(C)(C)C)cc(C(C)(C)C)c3)cc2)cc(O)c1C#N | 
2.13 µM | Active | inactive | CN(C)CCNc1cc(-c2ccc(Oc3ccccc3)cc2)cc(O)c1C#N | 
> 10 µM | Active | inactive | CN(C)CCn1cnc2ccc(NC(=O)NC3CCCCC3)cc21 | 
0.8 µM | Active | inactive | CCN(CC)CCNC1=C(C#N)C(=O)c2cccc3c(SC4CCCCC4)ccc1c23 | Kd [4]: 0.688 µM; inhibition (K562 [22]): Active; EC50 (K562 [7]): 1.2 µM; inhibition (K562 [23]): Active; solubility thermodynamic at 24 h [9]: 7.19 µg/mL (≈ 16.6 µM); EC50 [11]: 0.37 µM; inhibition (K562 [24]): inactive; inhibition (K562 [25]): Active; Activity (HEK293): < 10%; EC50 (BV-173): 0.66 µM; Activity (BaF3): < 10%
